Reference: patent publication US8378104B2 (OSI Pharmaceuticals, LLC, priority 2010, dated 2013)
Where a name gives a salt, the structure may show the parent alone.

What was measured:
TAK1-TAB1 fusion protein = molecular target: T1, TAK1-TAB1 fusion protein (Homo sapiens, UniProt O43318); experiment: TAK1 biochemical assay (AlphaScreen, GST-MAP2K7 substrate); conditions: TAK1-TAB1 fusion protein, GST-MAP2K7 substrate; read-out: mean TAK1 IC50 (Col. A)
T1 construct: purchased Carna
T1 sequence (O43318 with tags, fused parts or gaps limits assumed): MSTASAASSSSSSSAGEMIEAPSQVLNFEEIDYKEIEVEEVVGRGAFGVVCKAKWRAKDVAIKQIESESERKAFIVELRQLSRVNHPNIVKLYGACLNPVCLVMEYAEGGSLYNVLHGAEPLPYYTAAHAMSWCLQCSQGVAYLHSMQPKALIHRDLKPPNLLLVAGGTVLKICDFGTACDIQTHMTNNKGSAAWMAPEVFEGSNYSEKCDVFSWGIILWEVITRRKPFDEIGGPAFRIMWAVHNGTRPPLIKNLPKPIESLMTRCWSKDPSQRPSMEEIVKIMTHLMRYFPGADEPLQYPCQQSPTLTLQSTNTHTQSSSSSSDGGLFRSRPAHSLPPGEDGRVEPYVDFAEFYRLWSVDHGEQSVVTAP

pJNK in HCT-116 cells = experiment: Phospho-JNK (Thr183/Tyr185) Meso Scale ELISA assay, TNFα-stimulated HCT-116 cells; type: cell-based; conditions: Homo sapiens, read-out: mean HCT-116 pJNK ELISA IC50 (Col. B)
Summary of the method: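 Meso Scale ELISA read of phospho-JNK (Thr183/Tyr185) in lysed HCT-116 cells. Cells were serum-reduced to 1% FCS for 2 hours, exposed to test drug for 4 hrs at 37° C, then given 10 ng/mL TNFα (final) for 10 minutes before lysis.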

p-p38 in HCT-116 cells = experiment: Phospho-p38 Meso Scale ELISA assay, TNFα-stimulated HCT-116 cells; type: cell-based; conditions: Homo sapiens, read-out: mean HCT-116 p-p38 ELISA IC50 (Col. C)
Description: Detailed below are ELISA assays for pJNK and p38, and a TAK1 biochemical assay. […] In Table 1, Col.
• 1. Plate HCT-116 cells at 25,000 per well in 100 uL in 96 well clear dishes in normal growth medium. Day 2: • 1. Aspirate medium and replace with 90 μl reduced serum growth medium (1% FCS), incubate for 2 hours at 37° C. • 2. Make drugs at 10× in reduced serum medium and add 10 uL per well. • 3. Incubate at 37° C. for 4 hrs. • 4. Bring capture plates to room temperature. • 5. Block with 150 μl Blocking Solution (provided with kit) (600 mg Blocker A into 20 mL 1× Wash Buffer per plate) at room temperature with shaking. • 6. Wash plates 4× with 200 μl 1× wash buffer (10× provided with kit) before transferring lysates. • 7. Dilute TNFα to […] in reduced serum medium (this makes a 10× working stock). • 8. Add 10 μl TNFα to all wells except negative control wells, final concentration is 10 ng/mL. • 9. Incubate at 37° C. for 10 minutes. • 10. Remove medium by flicking into sink • 11. Wash cells with 100 uL ice cold PBS. • 12. Remove PBS by flicking into sink and patting on paper towels. • 13. Lyse cells in 50 μl ice cold 1× Complete Lysis Buffer plus Phosphatase and Protease inhibitors (all provided with kit) (10 mL Tris Lysis Buffer+200 μl Protease inhibitor solution+100 μl Phosphatase inhibitor I+100 μl Phosphatase inhibitor II). • 14. Incubate with shaking at 4° C. for 30 minutes. • 15. Transfer 45 μl to capture plate, cover with adhesive cover, and incubate at 4° C. over night with shaking. • Day 3: • 1. Wash plates 4× with 200 μl 1× wash buffer (10× provided with kit). • 2. […] Incubate at room temperature with shaking for 1 hour. • 4. Wash 4× with 200 μl 1× Wash Buffer. • 5. […] Read on Sector Imager. Phospho-p38 Meso Scale ELISA Assay Day 1: • 1. Plate HCT-116 cells at 25,000 per well in 100 uL in 96 well clear dishes in normal growth medium. zday 2: • 1. Aspirate medium and replace with 90 μl reduced serum growth medium (1% FCS), incubate for 2 hours at 37° C. • 2. Make drugs at 10× in reduced serum medium and add 10 uL per well. • 3. Incubate at 37° C. for 4 hrs. • 4. Bring capture plates to room temperature. • 5. Block with 150 μl Blocking Solution (provided with kit) (600 mg Blocker A into 20 mL 1× Wash Buffer per plate) at room temperature with shaking. • 6. Wash plates 4× with 200 μl 1× wash buffer (10× provided with kit) before transferring lysates. • 7. Dilute TNFα to […] in reduced serum medium (this makes a 10× working stock). • 8. Add 10 μl TNFα to all wells except negative control wells, final concentration is 10 ng/mL. • 9. Incubate at 37° C. for 10 minutes. • 10. Remove medium by flicking into sink • 11. Wash cells with 100 uL ice cold PBS. • 12. Remove PBS by flicking into sink and patting on paper towels. • 13. Lyse cells in 50 μl ice cold 1× Complete Lysis Buffer plus phosphatase and protease inhibitors (all provided with kit) (10 mL Tris Lysis Buffer+200 μl Protease inhibitor solution+100 μl Phosphatase inhibitor I+100 μl Phosphatase inhibitor II). • 14. Incubate with shaking at 4° C. for 30 minutes. • 15. Dilute lysates before transferring to capture plate with 100 μl Complete p38 Lysate • Dilution Buffer (provided with kit) (10 mL of Diluent 20±200 μl Protease inhibitor solution+100 μl Phosphatase inhibitor I+100 μl Phosphatase inhibitor II). • 16. Transfer 50 μl of diluted lysates to capture plate, cover with adhesive cover, and incubate at 4° C. over night with shaking. Day 3: • 1. Wash plates 4× with 200 μl 1× wash buffer (10× provided with kit). • 2. […] Incubate at room temperature with shaking for 1 hour. • 4. Wash 4× with 200 μl 1× Wash Buffer. • 5. […] Read on Sector Imager. TAK1 Biochemical Assay

IC50 (TAK1-TAB1 fusion protein) [nM]	IC50 (pJNK in HCT-116 cells) [nM]	IC50 (p-p38 in HCT-116 cells) [nM]	SMILES
1000 to 10000	100 to 1000	1000 to 10000	Nc1ncc(-c2cc[nH]c2)c2cc(-c3csc4cnccc34)oc12 [Example 376, 4-(1H-pyrrol-3-yl)-2-thieno[2,3-c]pyridin-3-yl-furo[2,3-c]pyridin-7-ylamine]
100 to 1000	100 to 1000	1000 to 10000	CC(=O)N1CCC(n2cc(-c3cnc(N)c4oc(-c5ccc(O)c(Cl)c5)cc34)cn2)CC1 [Example 136, 1-(4-{4-[7-amino-2-(3-chloro-4-hydroxyphenyl)furo[2,3-c]pyridin-4-yl]-1H-pyrazol-1-yl}piperidin-1-yl)ethanone]
100 to 1000	100 to 1000	100 to 1000	CC(C)n1cc(-c2cnc(N)c3oc(-c4cccc5cnccc45)cc23)cn1 [Example 60, 2-(isoquinolin-5-yl)-4-[1-(propan-2-yl)-1H-pyrazol-4-yl]furo[2,3-c]pyridin-7-amine]
< 100	< 100	100 to 1000	CC(=O)N1CCC(n2cc(-c3cnc(N)c4oc(-c5csc6cnccc56)cc34)cn2)CC1 [Example 189, 1-(4-{4-[7-amino-2-(thieno[2,3-c]pyridin-3-yl)furo[2,3-c]pyridin-4-yl]-1H-pyrazol-1-yl}piperidin-1-yl)ethanone]
100 to 1000	100 to 1000	100 to 1000	CC(C)(C)OC(=O)N1CCC(n2cc(-c3cnc(N)c4oc(-c5csc6cnccc56)cc34)cn2)CC1 [Example 300, 4-[4-(7-amino-2-thieno[2,3-c]pyridin-3-yl-furo[2,3-c]pyridin-4-yl)-pyrazol-1-yl]piperidine-1-carboxylic acid tert-butyl ester]
1000 to 10000	> 10000	> 10000	CC(=O)N1CCC(n2cc(-c3cnc(N)c4oc(-c5cnn(Cc6cccnc6)c5)cc34)cn2)CC1 [Example 148, 1-[4-(4-{7-amino-2-[1-(pyridin-3-ylmethyl)-1H-pyrazol-4-yl]furo[2,3-c]pyridin-4-yl}-1H-pyrazol-1-yl)piperidin-1-yl]ethanone]
100 to 1000	100 to 1000	100 to 1000	CC(=O)N1CCC(n2cc(-c3cnc(N)c4oc(-c5cncc6cnsc56)cc34)cn2)CC1 [Example 262, 1-(4-{4-[7-amino-2-([1,2]thiazolo[4,5-c]pyridin-7-yl)furo[2,3-c]pyridin-4-yl]-1H-pyrazol-1-yl}piperidin-1-yl)ethanone Diformate Salt]
1000 to 10000	100 to 1000	100 to 1000	Cn1cc(-c2cnc(N)c3oc(-c4cccc5cnccc45)cc23)cn1 [Example 70, 2-(isoquinolin-5-yl)-4-(1-methyl-1H-pyrazol-4-yl)furo[2,3-c]pyridin-7-amine]
100 to 1000	100 to 1000	100 to 1000	Nc1ncc(-c2cnn([C@H]3CC[C@H](O)CC3)c2)c2cc(-c3ccc(F)c4cnsc34)oc12 [Example 230, trans-4-{4-[7-amino-2-(4-fluoro-1,2-benzothiazol-7-yl)furo[2,3-c]pyridin-4-yl]-1H-pyrazol-1-yl}cyclohexanol diformate salt]
100 to 1000	100 to 1000	100 to 1000	CC(=O)N1CCC(n2cc(-c3cnc(N)c4oc(-c5cccc(C#N)c5)cc34)cn2)CC1 [Example 143, 3-{4-[1-(1-acetylpiperidin-4-yl)-1H-pyrazol-4-yl]-7-aminofuro[2,3-c]pyridin-2-yl}benzonitrile]
100 to 1000	1000 to 10000	> 10000	CC(=O)N1CCC(n2cc(-c3cnc(N)c4oc(-c5ccc6[nH]nc(C#N)c6c5)cc34)cn2)CC1 [Example 236, 5-{4-[1-(1-acetylpiperidin-4-yl)-1H-pyrazol-4-yl]-7-aminofuro[2,3-c]pyridin-2-yl}-1H-indazole-3-carbonitrile]
100 to 1000	–	100 to 1000	Cc1sc2cnccc2c1-c1cc2c(-c3cnn([C@H]4CC[C@H](O)CC4)c3)cnc(N)c2o1 [Example 252, trans-4-{4-[7-amino-2-(2-methylthieno[2,3-c]pyridin-3-yl)furo[2,3-c]pyridin-4-yl]-1H-pyrazol-1-yl}cyclohexanol trifluoroacetate]
